Experimental data taken from PubChem BioAssay (NCI).
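Where inhibition never reached the appropriate level, the endpoint shown equals the highest concentration tested. Otherwise, values were interpolated linearly from a five-concentration, 48-hour dose response in 96-well plates. At the TGI there is no net growth.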

Assays:
Test in all cases: NCI anticancer screen, dose series, 48 h
[1] = test system: BT-549 breast
[2] = test system: HCC-2998 colon
[3] = test system: SR leukemia
[4] = test system: CCRF-CEM leukemia
[5] = test system: UACC-257 melanoma
[6] = test system: 786-0 renal
[7] = test system: SNB-75 CNS
[8] = test system: NCI-H460 lung
[9] = test system: HS 578T breast
[10] = test system: COLO 205 colon
[11] = test system: MDA-MB-435
[12] = test system: SK-MEL-2 melanoma
[13] = test system: MDA-MB-231 breast
[14] = test system: ACHN renal
[15] = test system: UACC-62 melanoma
[16] = test system: SK-MEL-28 melanoma
[17] = test system: HCT-116 colon
[18] = test system: SW-620 colon
[19] = test system: MCF7 breast
[20] = test system: NCI/ADR-RES ovarian
[21] = test system: SF-268 CNS
[22] = test system: HOP-92 NSCLC
[23] = test system: OVCAR-5 ovarian
[24] = test system: PC-3 prostate
[25] = test system: UO-31 renal
[26] = test system: NCI-H23 lung
[27] = test system: SN12C renal
[28] = test system: T-47D breast
[29] = test system: RPMI-8226 leukemia
[30] = test system: DU-145 prostate
[31] = test system: HOP-62 NSCLC
[32] = test system: SF-539 CNS
[33] = test system: EKVX NSCLC
[34] = test system: MDA-N
[35] = test system: SK-OV-3 ovarian
[36] = test system: LOX IMVI melanoma
[37] = test system: A498 renal
[38] = test system: OVCAR-8 ovarian
[39] = test system: M14 melanoma
[40] = test system: K-562 leukemia
[41] = test system: HL-60(TB) leukemia
[42] = test system: CAKI-1 renal
[43] = test system: SNB-19 CNS
[44] = test system: U251 CNS
[45] = test system: A549 NSCLC
[46] = test system: TK-10 renal
[47] = test system: NCI-H522 lung
[48] = test system: HCT-15 colon
[49] = test system: KM12 colon
[50] = test system: IGROV1 ovarian
[51] = test system: OVCAR-3 ovarian
[52] = test system: NCI-H226 lung
[53] = test system: HT29 colon
[54] = test system: SF-295 CNS
[55] = test system: OVCAR-4 ovarian
[56] = test system: MOLT-4 leukemia
[57] = test system: SK-MEL-5 melanoma
[58] = test system: MALME-3M melanoma

SMILES: CC1(O)CCC(C(C)(C)O)CC1 (configuration not stated)
- TGI [1]: > 100 µM
- TGI [2]: > 100 µM
- TGI [3]: > 100 µM
- TGI [4]: > 100 µM
- TGI [5]: > 100 µM
- TGI [6]: > 100 µM
- TGI [7]: > 100 µM
- TGI [8]: > 100 µM
- TGI [9]: > 100 µM
- TGI [10]: > 100 µM
- TGI [11]: > 100 µM
- TGI [12]: > 100 µM
- TGI [13]: > 100 µM
- TGI [14]: > 100 µM
- TGI [15]: > 100 µM
- TGI [16]: > 100 µM
- TGI [17]: > 100 µM
- TGI [18]: > 100 µM
- TGI [19]: > 100 µM
- TGI [20]: > 100 µM
- TGI [21]: > 100 µM
- TGI [22]: > 100 µM
- TGI [23]: > 100 µM
- TGI [24]: > 100 µM
- TGI [25]: > 100 µM
- TGI [26]: > 100 µM
- TGI [27]: > 100 µM
- TGI [28]: > 100 µM
- TGI [29]: > 100 µM
- TGI [30]: > 100 µM
- TGI [31]: > 100 µM
- TGI [32]: > 100 µM
- TGI [33]: > 100 µM
- TGI [34]: > 100 µM
- TGI [35]: > 100 µM
- TGI [36]: > 100 µM
- TGI [37]: > 100 µM
- TGI [38]: > 100 µM
- TGI [39]: > 100 µM
- TGI [40]: > 100 µM
- TGI [41]: > 100 µM
- TGI [42]: > 100 µM
- TGI [43]: > 100 µM
- TGI [44]: > 100 µM
- TGI [45]: > 100 µM
- TGI [46]: > 100 µM
- TGI [47]: > 100 µM
- TGI [48]: > 100 µM
- TGI [49]: > 100 µM
- TGI [50]: > 100 µM
- TGI [51]: > 100 µM
- TGI [52]: > 100 µM
- TGI [53]: > 100 µM
- TGI [54]: > 100 µM
- TGI [55]: > 100 µM
- TGI [56]: > 100 µM
- TGI [57]: > 100 µM

SMILES: Cc1ccc(Cc2nc(=S)[nH][nH]2)cc1
- TGI [1]: > 100 µM
- TGI [2]: > 100 µM
- TGI [3]: > 100 µM
- TGI [4]: > 100 µM
- TGI [5]: > 100 µM
- TGI [6]: > 100 µM
- TGI [7]: > 100 µM
- TGI [8]: > 100 µM
- TGI [9]: > 100 µM
- TGI [10]: > 100 µM
- TGI [11]: > 100 µM
- TGI [12]: > 100 µM
- TGI [13]: > 100 µM
- TGI [14]: > 100 µM
- TGI [15]: > 100 µM
- TGI [16]: > 100 µM
- TGI [17]: > 100 µM
- TGI [18]: > 100 µM
- TGI [19]: > 100 µM
- TGI [20]: > 100 µM
- TGI [22]: > 100 µM
- TGI [23]: > 100 µM
- TGI [24]: > 100 µM
- TGI [25]: > 100 µM
- TGI [26]: > 100 µM
- TGI [27]: > 100 µM
- TGI [28]: > 100 µM
- TGI [30]: > 100 µM
- TGI [31]: > 100 µM
- TGI [32]: > 100 µM
- TGI [33]: > 100 µM
- TGI [34]: > 100 µM
- TGI [35]: > 100 µM
- TGI [36]: > 100 µM
- TGI [37]: > 100 µM
- TGI [58]: > 100 µM
- TGI [38]: > 100 µM
- TGI [39]: > 100 µM
- TGI [40]: > 100 µM
- TGI [41]: 97.9 µM
- TGI [42]: > 100 µM
- TGI [43]: > 100 µM
- TGI [44]: > 100 µM
- TGI [45]: > 100 µM
- TGI [46]: > 100 µM
- TGI [48]: > 100 µM
- TGI [49]: > 100 µM
- TGI [50]: > 100 µM
- TGI [51]: > 100 µM
- TGI [52]: > 100 µM
- TGI [53]: > 100 µM
- TGI [54]: > 100 µM
- TGI [55]: 96.5 µM
- TGI [56]: > 100 µM
- TGI [57]: > 100 µM
